Laboratory results taken from US10757941B2, “Microbiocidal oxadiazole derivatives” (SYNGENTA PARTICIPATIONS AG, priority 2016, dated 2020).

Tests used:
[1] = tested on: Glomerella lagenarium (Colletotrichum lagenarium); experiment: Fungicidal activity against Glomerella lagenarium (Colletotrichum lagenarium) liquid culture / cucumber / preventative (anthracnose); format: cell-based; conditions: Colletotrichum orbiculare; 20 ppm in the applied formulation; liquid culture in PDB, 24° C.; inhibition of growth measured photometrically 3 to 4 days after application; compared to untreated; read-out: disease control
Experimental: Mycelia fragments or conidia suspensions of a fungus prepared either freshly from liquid cultures of the fungus or from cryogenic storage, are directly mixed into nutrient broth. DMSO solutions of the test compound (max. 10 mg/ml) are diluted with 0.025% Tween20 by a factor of 50 and 10 μl of this solution is pipetted into a microtiter plate (96-well format). The nutrient broth containing the fungal spores/mycelia fragments is then added to give an end concentration of the tested compound. The test plates are incubated in the dark at 24° C. and 96% relative humidity. The inhibition of fungal growth is determined photometrically after 2 to 7 days, depending on the pathosystem, and percent antifungal activity relative to the untreated check is calculated. Example 4: Fungicidal Activity Against Glomerella lagenarium (Colletotrichum lagenarium) Liquid Culture/Cucumber/Preventative (Anthracnose) Conidia of the fungus from cryogenic storage are directly mixed into nutrient broth (PDB—potato dextrose broth). After placing a (DMSO) solution of test compound into a microtiter plate (96-well format), the nutrient broth containing the fungal spores is added. The test plates are incubated at 24° C. and the inhibition of growth is measured photometrically 3 to 4 days after application. The following compounds at 20 ppm in the applied formulation give at least 80% disease control in this test when compared to untreated control under the same conditions, which show extensive disease development.

[2] = tested on: Puccinia recondita f. Sp. Tritici; experiment: Fungicidal activity against Puccinia recondita f. sp. tritici / wheat / leaf disc preventative (brown rust); format: in vivo; conditions: foliar, 200 ppm in the applied formulation, wheat leaf segments cv. Kanzler, preventative (inoculated 1 day after application), assessed 7 to 9 days after application, compared to untreated, read-out: disease control
Experimental: Leaf disks or leaf segments of various plant species are cut from plants grown in a greenhouse. The cut leaf disks or segments are placed in multiwell plates (24-well format) onto water agar. The leaf disks are sprayed with a test solution before (preventative) or after (curative) inoculation. Compounds to be tested are prepared as DMSO solutions (max. 10 mg/ml) which are diluted to the appropriate concentration with 0.025% Tween20 just before spraying. The inoculated leaf disks or segments are incubated under defined conditions (temperature, relative humidity, light, etc.) according to the respective test system. A single evaluation of disease level is carried out 3 to 14 days after inoculation, depending on the pathosystem. Percent disease control relative to the untreated check leaf disks or segments is then calculated. Example 1: Fungicidal Activity Against Puccinia recondita f. Sp. Tritici/Wheat/Leaf Disc Preventative (Brown Rust) Wheat leaf segments cv. Kanzler were placed on agar in multiwell plates (24-well format) and sprayed with the formulated test compound diluted in water. The leaf disks were inoculated with a spore suspension of the fungus 1 day after application. The inoculated leaf segments were incubated at 19° C. and 75% relative humidity (rh) under a light regime of 12 hours light/12 hours darkness in a climate cabinet and the activity of a compound was assessed as percent disease control compared to untreated when an appropriate level of disease damage appears in untreated check leaf segments (7 to 9 days after application). The following compounds at 200 ppm in the applied formulation give at least 80% disease control in this test when compared to untreated control leaf disks under the same conditions, which show extensive disease development.

Uromyces viciae-fabael = experiment: Fungicidal activity against Uromyces viciae-fabae / field bean / leaf disc preventative (faba-bean rust); format: in vivo; conditions: foliar, 288 h, 100 ppm in the applied formulation, field bean leaf discs, preventative (inoculated two hours after application), assessed 12 days after application, compared to untreated, read-out: disease control
Experimental: Leaf disks or leaf segments of various plant species are cut from plants grown in a greenhouse. The cut leaf disks or segments are placed in multiwell plates (24-well format) onto water agar. The leaf disks are sprayed with a test solution before (preventative) or after (curative) inoculation. Compounds to be tested are prepared as DMSO solutions (max. 10 mg/ml) which are diluted to the appropriate concentration with 0.025% Tween20 just before spraying. The inoculated leaf disks or segments are incubated under defined conditions (temperature, relative humidity, light, etc.) according to the respective test system. A single evaluation of disease level is carried out 3 to 14 days after inoculation, depending on the pathosystem. Percent disease control relative to the untreated check leaf disks or segments is then calculated. Example 5: Fungicidal Activity Against Uromyces viciae-fabael Field Bean/Leaf Disc Preventative (Faba-Bean Rust) Field bean leaf discs are placed on water agar in multiwell plates (96-well format) and 10 μl of the formulated test compound diluted in acetone and a spreader pipetted onto the leaf disc. Two hours after application leaf discs are inoculated by spraying a spore suspension on the lower leaf surface. The leaf discs are incubated in a climate cabinet at 22° C. with 18 hour day and 70% relative humidity. The activity of a compound is assessed as percent disease control compared to untreated when an appropriate level of disease damage appears in untreated check leaf disks (12 days after application). The following compounds at 100 ppm in the applied formulation give at least 80% disease control in this test when compared to untreated control leaf discs under the same conditions, which show extensive disease development.

Phakopsora pachyrhizi = experiment: Fungicidal activity against Phakopsora pachyrhizi / soybean / leaf disc preventative (Asian soybean rust); format: in vivo; conditions: foliar, 200 ppm in the applied formulation, soybean leaf disks, preventative (inoculated one day after application), assessed 12 to 14 days after application, compared to untreated, read-out: disease control
Experimental: Leaf disks or leaf segments of various plant species are cut from plants grown in a greenhouse. The cut leaf disks or segments are placed in multiwell plates (24-well format) onto water agar. The leaf disks are sprayed with a test solution before (preventative) or after (curative) inoculation. Compounds to be tested are prepared as DMSO solutions (max. 10 mg/ml) which are diluted to the appropriate concentration with 0.025% Tween20 just before spraying. The inoculated leaf disks or segments are incubated under defined conditions (temperature, relative humidity, light, etc.) according to the respective test system. A single evaluation of disease level is carried out 3 to 14 days after inoculation, depending on the pathosystem. Percent disease control relative to the untreated check leaf disks or segments is then calculated. Example 3: Fungicidal Activity Against Phakopsora pachyrhizi/Soybean/Leaf Disc Preventative (Asian Soybean Rust) Soybean leaf disks are placed on water agar in multiwell plates (24-well format) and sprayed with the formulated test compound diluted in water. One day after application leaf discs are inoculated by spraying a spore suspension on the lower leaf surface. After an incubation period in a climate cabinet of 24-36 hours in darkness at 20° C. and 75% rh leaf disc are kept at 20° C. with 12 h light/day and 75% rh. The activity of a compound is assessed as percent disease control compared to untreated when an appropriate level of disease damage appears in untreated check leaf disks (12 to 14 days after application). The following compounds at 200 ppm in the applied formulation give at least 80% disease control in this test when compared to untreated control leaf disks under the same conditions, which show extensive disease development.

SMILES | inhibition of growth at 20 ppm [1] | pest or weed control at 200 ppm [2] | pest or weed control at 100 ppm (Uromyces viciae-fabael) | pest or weed control at 200 ppm (Phakopsora pachyrhizi)
O=C(NCCCCc1ccccc1)c1ccc(-c2noc(C(F)(F)F)n2)c(F)c1 [Compound 1.1, 3-fluoro-N-(4-phenylbutyl)-4-[5-(trifluoromethyl)-1,2,4-oxadiazol-3-yl]benzamide] | ≥ 80% | ≥ 80% | ≥ 80% | –
Cc1ccc(C)c(CNC(=O)c2ccc(-c3noc(C(F)(F)F)n3)c(F)c2)c1 [Compound 1.3, N-[(2,5-dimethyl-phenyl)methyl]-3-fluoro-4-[5-(trifluoromethyl)-1,2,4-oxadiazol-3-yl]benzamide] | – | ≥ 80% | ≥ 80% | ≥ 80%
O=C(NC1CCSCC1)c1ccc(-c2noc(C(F)(F)F)n2)c(F)c1 [Compound 1.7, 3-fluoro-N-tetrahydro-thiopyran-4-yl-4-[5-(trifluoromethyl)-1,2,4-oxadiazol-3-yl]benzamide] | – | – | ≥ 80% | –
O=C(Nc1ccnc2ncnn12)c1ccc(-c2noc(C(F)(F)F)n2)c(F)c1 [Compound 1.9, 3-fluoro-N-([1,2,4]triazolo[1,5-a]pyrimidin-7-yl)-4-[5-(trifluoromethyl)-1,2,4-oxadiazol-3-yl]benzamide] | ≥ 80% | ≥ 80% | ≥ 80% | –
CN1CCC2(CC1)CC(NC(=O)c1ccc(-c3noc(C(F)(F)F)n3)c(F)c1)C2 [Compound 1.11, 3-fluoro-N-(7-methyl-7-azaspiro[3.5]nonan-2-yl)-4-[5-(trifluoromethyl)-1,2,4-oxadiazol-3-yl]benzamide] | – | – | ≥ 80% | ≥ 80%
O=C(NC1CCc2ccccc21)c1ccc(-c2noc(C(F)(F)F)n2)c(F)c1 (centres unmarked) [Compound 1.15, 3-fluoro-N-indan-1-yl-4-[5-(trifluoromethyl)-1,2,4-oxadiazol-3-yl]benzamide] | – | ≥ 80% | ≥ 80% | ≥ 80%
CCOc1ccc(CN(C(=O)c2ccc(-c3noc(C(F)(F)F)n3)c(F)c2)C(C)C)cc1OCC [Compound 1.17, N-[(3,4-diethoxyphenyl)methyl]-3-fluoro-N-isopropyl-4-[5-(trifluoromethyl)-1,2,4-oxadiazol-3-yl]benzamide] | ≥ 80% | ≥ 80% | ≥ 80% | –
O=C(c1ccc(-c2noc(C(F)(F)F)n2)c(F)c1)N(Cc1ccc2c(c1)OCO2)CC1OCCO1 [Compound 1.18, N-(1,3-benzodioxol-5-ylmethyl)-N-(1,3-dioxolan-2-ylmethyl)-3-fluoro-4-[5-(trifluoromethyl)-1,2,4-oxadiazol-3-yl]benzamide] | ≥ 80% | ≥ 80% | ≥ 80% | –
CCOc1ccc(CN(CC2OCCO2)C(=O)c2ccc(-c3noc(C(F)(F)F)n3)c(F)c2)cc1OCC [Compound 1.19, N-[(3,4-diethoxyphenyl)methyl]-N-(1,3-dioxolan-2-ylmethyl)-3-fluoro-4-[5-(trifluoromethyl)-1,2,4-oxadiazol-3-yl]benzamide] | ≥ 80% | – | ≥ 80% | –
CC1CCCC(C)N1CCNC(=O)c1ccc(-c2noc(C(F)(F)F)n2)c(F)c1 (centres unmarked) [Compound 1.21, N-[2-(2,6-dimethyl-1-piperidyl)ethyl]-3-fluoro-4-[5-(trifluoromethyl)-1,2,4-oxadiazol-3-yl]benzamide] | – | – | ≥ 80% | –
CCC(C#N)(COc1ccc(C#N)cc1)NC(=O)c1ccc(-c2noc(C(F)(F)F)n2)c(F)c1 (centres unmarked) [Compound 1.24, N-[1-cyano-1-[(4-cyanophenoxy)methyl]propyl]-3-fluoro-4-[5-(trifluoromethyl)-1,2,4-oxadiazol-3-yl]benzamide] | – | ≥ 80% | – | –
CCOC(=O)C(CC(F)(F)F)NC(=O)c1ccc(-c2noc(C(F)(F)F)n2)c(F)c1 (centres unmarked) [Compound 1.26, ethyl 4,4,4-trifluoro-2-[[3-fluoro-4-[5-(trifluoromethyl)-1,2,4-oxadiazol-3-yl]benzoyl]amino] butanoate] | – | ≥ 80% | ≥ 80% | –
N#CCCN(CCC#N)C(=O)c1ccc(-c2noc(C(F)(F)F)n2)c(F)c1 [Compound 1.29, N,N-bis(2-cyanoethyl)-3-fluoro-4-[5-(trifluoromethyl)-1,2,4-oxadiazol-3-yl]benzamide] | – | – | ≥ 80% | –
CC(C)C(C)(C#N)NC(=O)c1ccc(-c2noc(C(F)(F)F)n2)c(F)c1 (centres unmarked) [Compound 1.30, N-(1-cyano-1,2-dimethyl-propyl)-3-fluoro-4-[5-(trifluoromethyl)-1,2,4-oxadiazol-3-yl]benzamide] | ≥ 80% | ≥ 80% | – | –
O=C(NCCCn1ccnc1)c1ccc(-c2noc(C(F)(F)F)n2)c(F)c1 [Compound 1.32, 3-fluoro-N-(3-imidazol-1-ylpropyl)-4-[5-(trifluoromethyl)-1,2,4-oxadiazol-3-yl]benzamide] | – | – | ≥ 80% | –
O=C(Nc1ccccc1)c1ccc(-c2noc(C(F)(F)F)n2)c(F)c1 [Compound 1.33, 3-fluoro-N-phenyl-4-[5-(trifluoromethyl)-1,2,4-oxadiazol-3-yl]benzamide] | – | – | ≥ 80% | –
O=C(NC1CC1c1ccccc1)c1ccc(-c2noc(C(F)(F)F)n2)c(F)c1 (centres unmarked) [Compound 1.34, 3-fluoro-N-(2-phenylcyclopropyl)-4-[5-(trifluoromethyl)-1,2,4-oxadiazol-3-yl]benzamide] | – | – | ≥ 80% | –
CC(C)(C)CC(C)(C)NC(=O)c1ccc(-c2noc(C(F)(F)F)n2)c(F)c1 [Compound 1.37, 3-fluoro-N-(1,1,3,3-tetramethylbutyl)-4-[5-(trifluoromethyl)-1,2,4-oxadiazol-3-yl]benzamide] | ≥ 80% | – | ≥ 80% | –
